± gives the standard deviation of the averaged measurements.
Columns and labels:
CANERTINIB = compound: C=CC(=O)Nc1cc2c(Nc3ccc(F)c(Cl)c3)ncnc2cc1OCCCN1CCOCC1 [CANERTINIB]; test: surviving fraction relative to DMSO-only wells; higher = less growth inhibition; details: exposure time: 5 days
Procedure, shortened: (§1)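 Log-phase tumour cell lines were seeded at 250–500 cells per well in 384-well plates. After 24 hours they were exposed continuously for five days to inhibitors at 0.5, 1, 5, 10, 50, 100, 500 and 1000 nM. Viability was read by CellTiter-Glo luminescence after 10 minutes at room temperature, and surviving fraction is luminescence normalised to the median of DMSO-only wells. Each line was screened three times and kept only if replicate Pearson r >0.7 and median Z' >0.3.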

BI-2536 = compound: CC[C@@H]1C(=O)N(C)c2cnc(Nc3ccc(C(=O)NC4CCN(C)CC4)cc3OC)nc2N1C1CCCC1 [BI-2536]; test: as above; details: exposure time: 5 days
Procedure, shortened: as §1

Test System	surviving fraction (CANERTINIB; 0.5 nM)	surviving fraction (CANERTINIB; 1 nM)	surviving fraction (CANERTINIB; 5 nM)	surviving fraction (CANERTINIB; 10 nM)	surviving fraction (CANERTINIB; 50 nM)	surviving fraction (CANERTINIB; 100 nM)	surviving fraction (CANERTINIB; 500 nM)	surviving fraction (CANERTINIB; 1000 nM)	surviving fraction (BI-2536; 0.5 nM)	surviving fraction (BI-2536; 1 nM)	surviving fraction (BI-2536; 5 nM)	surviving fraction (BI-2536; 10 nM)	surviving fraction (BI-2536; 50 nM)	surviving fraction (BI-2536; 100 nM)	surviving fraction (BI-2536; 500 nM)	surviving fraction (BI-2536; 1000 nM)
COLO320DM LARGE INTESTINE	1.14 ± 0.076	1.15 ± 0.042	1.04 ± 0.062	1.05 ± 0.06	1.11 ± 0.084	1.04 ± 0.047	0.893 ± 0.032	0.66 ± 0.018	1.17 ± 0.018	1.08 ± 0.015	1.09 ± 0.051	0.836 ± 0.034	0.191 ± 0.019	0.0987 ± 0.0025	0.105 ± 0.011	0.109 ± 0.0025
NOS1 BONE	0.909 ± 0.16	0.939 ± 0.12	0.957 ± 0.094	1.04 ± 0.14	1.04 ± 0.11	1.1 ± 0.1	0.585 ± 0.052	0.333 ± 0.02	1.01 ± 0.12	0.839 ± 0.089	0.338 ± 0.056	0.296 ± 0.046	0.341 ± 0.074	0.387 ± 0.002	0.334 ± 0.034	0.328 ± 0.02
KPD BONE	0.943 ± 0.043	0.947 ± 0.076	0.962 ± 0.026	0.929 ± 0.023	0.917 ± 0.068	0.922 ± 0.04	0.776 ± 0.048	0.497 ± 0.047	0.919 ± 0.06	0.925 ± 0.022	0.79 ± 0.024	0.482 ± 0.016	0.205 ± 0.012	0.197 ± 0.011	0.113 ± 0.0035	0.0597 ± 0.0038
HMT3552 BREAST	0.832 ± 0.042	0.838 ± 0.058	0.804 ± 0.014	0.774 ± 0.029	0.828 ± 0.079	0.8597 ± 0.0078	0.696 ± 0.037	0.604 ± 0.015	0.781	0.352	0.14	0.192	0.221	0.205	0.121	0.11
HMLE3 BREAST	0.883 ± 0.0092	0.909 ± 0.082	0.891 ± 0.044	0.898 ± 0.018	0.913 ± 0.024	0.838 ± 0.14	0.847 ± 0.028	0.872 ± 0.1	1.04 ± 0.14	1.09 ± 0.1	0.819 ± 0.076	0.216 ± 0.0056	0.0467 ± 0.014	0.0453 ± 0.015	0.0567 ± 0.011	0.063 ± 0.007
CAL51 BREAST	0.937 ± 0.078	0.92 ± 0.061	0.983 ± 0.053	0.976 ± 0.018	0.974 ± 0.038	1.05 ± 0.083	0.87 ± 0.014	0.481 ± 0.015	0.966 ± 0.057	0.87 ± 0.062	0.0793 ± 0.0041	0.0425 ± 0.0026	0.0333 ± 0.0013	0.0258 ± 0.0033	0.0175 ± 0.00087	0.0207 ± 0.00076
JURKAT HAEMATOPOIETIC AND LYMPHOID TISSUE	1.01 ± 0.025	0.977 ± 0.045	1.02 ± 0.018	0.952 ± 0.041	0.978 ± 0.03	0.978 ± 0.014	1.01 ± 0.031	0.839 ± 0.043	1.04 ± 0.022	0.911 ± 0.015	0.028 ± 0.001	0.0257 ± 0.00058	0.0297 ± 0.00058	0.0217 ± 0.00058	0.0177 ± 0.00058	0.021
MDAMB468 BREAST	0.866 ± 0.035	0.837 ± 0.087	0.841 ± 0.087	0.777 ± 0.054	0.789 ± 0.068	0.72 ± 0.07	0.478 ± 0.029	0.382 ± 0.017	0.902 ± 0.037	0.462 ± 0.048	0.0863 ± 0.0084	0.111 ± 0.018	0.215 ± 0.018	1.05 ± 0.061	0.111 ± 0.008	0.084 ± 0.0027
CASKI CERVIX	0.83 ± 0.027	0.8 ± 0.042	0.644 ± 0.052	0.704 ± 0.042	0.555 ± 0.037	0.516 ± 0.054	0.157 ± 0.018	0.151 ± 0.022	0.739 ± 0.024	0.427 ± 0.068	0.0607 ± 0.011	0.0583 ± 0.0064	0.0967 ± 0.015	0.075	0.0153 ± 0.0021	0.0183 ± 0.00058
MG63 BONE	0.947 ± 0.015	0.919 ± 0.016	0.9893 ± 0.007	0.971 ± 0.013	1.02 ± 0.014	1.02 ± 0.011	0.993 ± 0.025	1 ± 0.022	1.057 ± 0.0095	1.02 ± 0.053	0.884 ± 0.049	0.0403 ± 0.0059	0.033 ± 0.0017	0.023 ± 0.0017	0.029 ± 0.001	0.03 ± 0.001
JIMT1 BREAST	0.896 ± 0.02	0.904 ± 0.029	0.94 ± 0.029	0.911 ± 0.021	0.968 ± 0.021	0.897 ± 0.042	0.633 ± 0.041	0.541 ± 0.042	0.941 ± 0.041	0.737 ± 0.015	0.2183 ± 0.0013	0.181 ± 0.0095	0.18 ± 0.017	0.158 ± 0.02	0.143 ± 0.0061	0.0883 ± 0.0045
HELA CERVIX	0.9167 ± 0.0022	0.8778 ± 0.0083	0.888 ± 0.024	0.865 ± 0.023	1.04 ± 0.084	0.979 ± 0.074	1.02 ± 0.074	1 ± 0.039	1.05 ± 0.05	1.048 ± 0.0063	0.243 ± 0.048	0.033 ± 0.00087	0.0492 ± 0.0016	0.0475 ± 0.0049	0.11 ± 0.0041	0.133 ± 0.013
HCC1806 BREAST	0.803 ± 0.11	0.688 ± 0.12	0.738 ± 0.081	0.706 ± 0.022	0.738 ± 0.12	0.639 ± 0.027	0.442 ± 0.043	0.328 ± 0.037	0.932 ± 0.046	0.749 ± 0.07	0.05 ± 0.0082	0.0447 ± 0.026	0.126 ± 0.025	0.136 ± 0.0081	0.106 ± 0.0027	0.0743 ± 0.015
HS57T BREAST	0.946 ± 0.044	0.899 ± 0.047	0.893 ± 0.11	0.911 ± 0.02	0.919 ± 0.081	0.908 ± 0.012	0.843 ± 0.047	0.692 ± 0.02	1.1 ± 0.045	0.986 ± 0.028	0.216 ± 0.016	0.114 ± 0.011	0.0903 ± 0.0047	0.0937 ± 0.0085	0.156 ± 0.025	0.127 ± 0.009
OSHN BONE	0.898 ± 0.036	0.904 ± 0.028	0.932 ± 0.035	0.91 ± 0.019	1.03 ± 0.043	1.03 ± 0.016	1.02 ± 0.0035	1.03 ± 0.028	1.09 ± 0.019	1.075 ± 0.0046	0.874 ± 0.072	0.027 ± 0.001	0.0297 ± 0.00058	0.022 ± 0.001	0.0237 ± 0.0021	0.0237 ± 0.0011
HOSMNG BONE	0.92 ± 0.04	0.978 ± 0.014	1.003 ± 0.0067	1.01 ± 0.055	1.08 ± 0.12	1.11 ± 0.1	1.04 ± 0.025	1.11 ± 0.016	1.03 ± 0.017	0.955 ± 0.11	0.918 ± 0.055	0.268 ± 0.033	0.047 ± 0.0036	0.046 ± 0.013	0.0673 ± 0.0061	0.0843 ± 0.013
SCC36 HEADNECK	0.715 ± 0.044	0.747 ± 0.059	0.645 ± 0.054	0.753 ± 0.016	0.741 ± 0.039	0.747 ± 0.045	0.328 ± 0.023	0.329 ± 0.035	0.945 ± 0.088	0.897 ± 0.19	0.189 ± 0.011	0.191 ± 0.01	0.291 ± 0.04	0.24 ± 0.018	0.114 ± 0.0061	0.07 ± 0.0053
CADOES1 SOFT TISSUE	1 ± 0.13	0.945 ± 0.049	0.945 ± 0.038	0.93 ± 0.075	0.918 ± 0.17	0.926 ± 0.029	0.738 ± 0.12	0.595 ± 0.035	1.04 ± 0.059	0.939 ± 0.059	0.872 ± 0.093	0.792 ± 0.12	0.193 ± 0.025	0.0877 ± 0.018	0.0517 ± 0.016	0.0513 ± 0.0051
CME SYNOVIAL	0.93 ± 0.083	0.969 ± 0.098	0.918 ± 0.065	0.888 ± 0.087	1.18 ± 0.034	1.2 ± 0.11	1.05 ± 0.033	0.876 ± 0.11	1.02 ± 0.077	0.988 ± 0.11	0.683 ± 0.18	0.378 ± 0.031	0.278 ± 0.023	0.237 ± 0.01	0.259 ± 0.004	0.279 ± 0.011
93VU HEADNECK	0.784 ± 0.029	0.787 ± 0.065	0.86 ± 0.034	0.698 ± 0.042	1.07 ± 0.053	0.738 ± 0.062	0.63 ± 0.02	0.312 ± 0.044	1.11 ± 0.12	1.05 ± 0.06	0.507 ± 0.077	0.27 ± 0.012	0.258 ± 0.0056	0.333 ± 0.056	0.205 ± 0.023	0.123 ± 0.0066
LNCAP PROSTATE	1.1 ± 0.078	1 ± 0.059	1.09 ± 0.06	1.08 ± 0.036	1.01 ± 0.057	1.04 ± 0.055	0.935 ± 0.093	0.782 ± 0.086	1.05 ± 0.099	1.03 ± 0.08	0.0577 ± 0.0084	0.0533 ± 0.0055	0.113 ± 0.018	0.115 ± 0.028	0.141 ± 0.022	0.112 ± 0.013

Source: the supplement of paper PMC6045584
